According to patent US20220257774A1, “AROMATIC AMINE AR AHD BET TARGETING PROTEIN DEGRADATION CHIMERA COMPOUND AND USE” (HINOVA PHARMACEUTICALS INC., priority 2019, published 2022):

Experiments:
LNCaP/AR cells = test: Inhibition of the proliferation of LNCap/AR cells (CCK-8); format: cell-based; conditions: 144 h; LNCaP/AR cells, 6 days culture, CCK-8; read-out: LNCap/AR IC50
Procedure, shortened: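 Proliferation was read by CCK-8 (OD 450 nm, 1 h) after six days of compound exposure. Cells were seeded at 1000 per well overnight, then dosed in duplicate over nine 3-fold steps with a top final concentration of 10 μM in 0.1% DMSO; IC50 was fitted from inhibition curves.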

22RV1 cells = test: Inhibition of the proliferation of drug-resistant prostate cancer cell 22RV1 (CCK-8); format: cell-based; conditions: Homo sapiens; 22RV1 cells (enzalutamide-resistant), same method
Experimental: (1) Experimental materials and instruments: LNCaP/AR cell line and 22RV1 cell line (provided by Sichuan Kangcheng Biotechnology Co., Ltd.) Fetal bovine serum FBS (Gibco, Cat. No. 10099-141) 0.01M PBS (Biosharp, Cat. No. 162262) RIPM1640 medium (Hyclone, Cat. No. 308090.01) Penicillin-Streptomycin (Hyclone, Cat. No. SV30010) Cell counting kit-8 (Signalway Antibody, Cat. No. CP002) DMSO (Sigma, Cat. No. D5879) Centrifuge Tube, 15 ml (Excell Bio, Cat. No. CS015-0001) Cell Culture Dish, (Excell Bio, Cat. No. CS016-0128) 96-well cell culture plate (Corning, Cat. No. 3599) Microplate reader (Thermo Multiskan MK3 type)
a. Preparation of Buffer Cell culture medium: RIPM1640 medium, 10% FBS, 1% Pen Strep: PBS buffer: PBS powder was dissolved in 2 L of ultrapure water and sterilized. b. Experimental Procedures 1) LNCaP/AR cells were subcultured in cell culture media, and then the cells in good growth condition were seeded in a 96-well plate at 80 μL/well (1000 cells/well), and cultured overnight in a 37° C., 5% CO2 cell incubator. 2) The drug was prepared into a 10 mM stock solution with dimethyl sulfoxide (DMSO). Prior to use, the stock solution was diluted in a ratio of […] with DMSO, and then diluted at a 3-fold gradient to obtain 9 serial concentrations. Then, each concentration of compound was further diluted in a ratio of 1:200 with the culture medium (to ensure that the DMSO concentration in the culture system was 0.1%), and two wells were set for each concentration. 20 μL of the diluted compound solution was added to the well of the cell culture (with a final concentration of 10 μM, 3.3 μM, 1.1 μM . . . ), and then the plate was gently tapped to thoroughly mix. In addition, the experiment included 3 negative control wells only containing cells and 3 blank control wells only containing culture medium (6 wells were each added with DMSO diluted in a ratio of 1:200 with 20 μL of culture medium). c. Result Detection: 1) After culturing for 6 days, 10 μL of CCK-8 was added to each well, and the plate was further incubated for 1 h in a 37° C., 5% CO2 cell incubator. 2) The absorbance (OD value) was measured at 450 nm with a multifunctional microplate reader. 3) The data was analyzed by the Dose-response-inhibition equation in the software GraphPad Prism5, and the IC50 value was obtained. 2. Biological assay of the inhibition on the proliferation of other drug-resistant prostate cancer cells
The same test method was used to determine the inhibitory activity of the compound according to the present invention against drug-resistant prostate cancer cell 22RV1.

Row | SMILES | IC50 (LNCaP/AR cells) | IC50 (22RV1 cells)
1 | Cc1ccc(-c2c(C)noc2C)cc1N(c1ccc(C2(C#N)CC2)cc1)C1CN(CC2CCN(c3ccc4c(c3)C(=O)N(C3CCC(=O)NC3=O)C4=O)CC2)C1 (centres unmarked) [Compound 34, 1-(4-((5-(3,5-Dimethylisoxazol-4-yl)-2-methylphenyl) (1-((1-(2-(2,6-dioxopiperidin-3-yl)-1,3-dioxoisoindolin-5-yl)piperidin-4-yl)methyl)azetidin-3-yl)amino)phenyl)cyclopropane-1-nitrile] | > 2000 nM | > 2000 nM
2 | Cc1ccc(-c2c(C)noc2C)cc1N(c1ccc(C2(C#N)CC2)cc1)C1CN(c2ccc3c(c2)C(=O)N(C2CCC(=O)NC2=O)C3=O)C1 (centres unmarked) [Compound 35, 1-(4-((5-(3,5-Dimethylisoxazol-4-yl)-2-methylphenyl)(1-(2-(2,6-dioxopiperidin-3-yl)-1,3-dioxoisoindolin-5-yl)azetidin-3-yl)amino)phenyl)cyclopropane-1-nitrile] | > 2000 nM | > 2000 nM
3 | CC(=O)O[C@@H]1C[C@@H](C(=O)N[C@@H](C)c2ccc(-c3scnc3C)cc2)N(C(=O)[C@@H](NC(=O)CCN2CCC(CN(c3ccc(-n4ccnc4)c(Br)c3)c3cc(-c4c(C)noc4C)ccc3C)CC2)C(C)(C)C)C1 [Compound 99, (3R,5S)-1-((S)-2-(3-(4-(((3-Bromo-4-(1H-imidazol-1-yl)phenyl)(5-(3,5-dimethylisoxazol-4-yl)-2-methylphenyl)amino)methyl)piperidin-1-yl)propionamide)-3,3-dimethylbutyryl)-5-(((S)-1-(4-(4-methylthiazol-5-yl)phenyl)ethyl)carbamoyl)pyrrolidine-3-yl acetate] | 501 to 2000 nM | 
4 | Cc1ccc(-c2c(C)noc2C)cc1N(CC1CCN(CCC(=O)N[C@H](C(=O)N2C[C@H](O)C[C@H]2C(=O)N[C@@H](C)c2ccc(-c3scnc3C)cc2)C(C)(C)C)CC1)c1ccc(-n2ccnc2)c(Br)c1 [Compound 100, (2S,4R)-1-((S)-2-(3-(4-(((3-Bromo-4-(1H-imidazol-1-yl)phenyl)(5-(3,5-dimethylisoxazol-4-yl)-2-methylphenyl)amino)methyl)piperidin-1-yl)propionamide)-3,3-dimethylbutyryl)-4-hydroxy-N—((S)-1-(4-(4-methylthiazol-5-yl)phenyl)ethyl)pyrrolidine-2-formamide] | 501 to 2000 nM | 
5 | CC(=O)O[C@@H]1C[C@@H](C(=O)N[C@@H](C)c2ccc(-c3scnc3C)cc2)N(C(=O)[C@@H](NC(=O)COC2CN(CCN(c3ccc(-n4ccnc4)c(Br)c3)c3cc(-c4c(C)noc4C)ccc3C)C2)C(C)(C)C)C1 [Compound 101, (3R,5S)-1-((S)-2-(2-((1-(2-((3-Bromo-4-(1H-imidazol-1-yl)phenyl)(5-(3,5-dimethylisozazol-4-yl)-2-methylphenyl)amino)ethyl)azetidin-3-yl)oxy)acetylamino)-3,3-dimethylbutyryl)-5-(((S)-1-(4-(4-methylthiazol-5-yl)phenyl)ethyl)carbamoyl)pyrrolidine-3-yl acetate] | > 2000 nM | 
6 | Cc1ccc(-c2c(C)noc2C)cc1N(CCCCCCNc1cccc2c1CN(C1CCC(=O)NC1=O)C2=O)c1ccc(-n2ccnc2)c(Br)c1 (centres unmarked) [Compound 118, 3-(4-((6-((3-Bromo-4-(1H-imidazol-1-yl)phenyl)(5-(3,5-dimethylisoxazol-4-yl)-2-methylphenyl)amino)hexyl)amino)-1-oxoisoindolin-2-yl)piperidine-2,6-dione] | > 2000 nM | 
7 | Cc1ccc(-c2c(C)noc2C)cc1N(CCCCCNc1cc2c(cc1F)C(=O)N(C1CCC(=O)NC1=O)C2=O)c1ccc(C2(C#N)CC2)cc1 (centres unmarked) [Compound 148, 1-(4-((5-(3,5-Dimethylisoxazol-4-yl)-2-methylphenyl)(5-((2-(2,6-dioxopiperidin-3)-6-fluoro-1,3-dicarbonylisoindolin-5))amino)pentyl)amino)phenylcyclopropanecarbonitrile] | 501 to 2000 nM | 
8 | Cc1ccc(-c2c(C)noc2C)cc1N(C[C@H]1CC[C@H](CNc2cc3c(cc2F)C(=O)N(C2CCC(=O)NC2=O)C3=O)CC1)c1ccc(C2(C#N)CC2)cc1 (some centres unmarked) [Compound 150] | 501 to 2000 nM | 
9 | Cc1ccc(-c2c(C)noc2C)cc1N(CCCCCNc1ccc2c(c1)C(=O)N(C1CCC(=O)N(C)C1=O)C2=O)c1ccc(C2(C#N)CC2)cc1 (centres unmarked) [Compound 151, 1-(4-((5-(3,5-Dimethylisoxazol-4-yl)-2-methylphenyl)(5-((2-(1-methyl-2,6-dioxopiperidin-3)-1,3-dicarbonylisoindolin-5-yl))amino)pentyl)amino)phenylcyclopropanecarbonitrile] | > 2000 nM | 

The next lines start with the values.

Row | IC50 (LNCaP/AR cells) | IC50 (22RV1 cells) | SMILES
10 | 101 to 500 nM | < 100 nM | Cc1ccc(-c2c(C)noc2C)cc1N(CCCC1CCN(c2ccc3c(c2)C(=O)N(C2CCC(=O)NC2=O)C3)CC1)c1ccc(C2(C#N)CC2)cc1 (centres unmarked) [Compound 31, 1-(4-((5-(3,5-Dimethylisoxazol-4-yl)-2-methylphenyl)(3-(1-(2-(2,6-dioxopiperidin-3-yl)-3-oxoisoindolin-5-yl)piperidin-4-yl)propyl)amino)phenyl)cyclopropane-1-nitrile]
11 | 101 to 500 nM | < 100 nM | Cc1ccc(-c2c(C)noc2C)cc1N(CCCC1CCN(c2ccc3c(c2)CN(C2CCC(=O)NC2=O)C3=O)CC1)c1ccc(C2(C#N)CC2)cc1 (centres unmarked) [Compound 32, 1-(4-((5-(3,5-Dimethylisoxazol-4-yl)-2-methylphenyl)(3-(1-(2-(2,6-dioxopiperidin-3-yl)-1-oxoisoindolin-5-yl)piperidin-4-yl)propyl)amino)phenyl)cyclopropane-1-nitrile]
12 | 101 to 500 nM |  | Cc1ccc(-c2c(C)noc2C)cc1N(CCCCCOCC(=O)N[C@H](C(=O)N1C[C@H](O)C[C@H]1C(=O)N[C@@H](C)c1ccc(-c2scnc2C)cc1)C(C)(C)C)c1ccc(-n2ccnc2C)cc1 [Compound 97, (2S,4R)-1-((S)-2-(2-((5-((5-(3,5-dimethylisoxazol-4-yl)-2-methylphenyl)(4-(2-methyl-1H-imidazol-1-yl)phenyl)amino)pentyl)oxy)acetylamino)-3,3-dimethylbutyryl)-4-hydroxy-N—((S)-1-(4-(4-methylthiazol-5-yl)phenyl)ethyl)-pyrrolidinyl-2-formamide]
13 | 101 to 500 nM |  | CC(=O)O[C@@H]1C[C@@H](C(=O)N[C@@H](C)c2ccc(-c3scnc3C)cc2)N(C(=O)[C@@H](NC(=O)COCCCCCN(c2ccc(-n3ccnc3C)cc2)c2cc(-c3c(C)noc3C)ccc2C)C(C)(C)C)C1 [Compound 98, (3R,5S)-1-((S)-2-(2-((5-((5-(3,5-dimethylisoxazol-4-yl)-2-methylphenyl)(4-(2-methyl-1H-imidazol-1-yl)phenyl)amino)pentyl)oxy)acetylamino)-3,3-dimethylbutyryl)-5-(((S)-1-(4-(4-methylthiazol-5-yl)phenyl)ethyl)aminoformyl)pyrrolidinyl-3-yl acetate]
14 | 101 to 500 nM |  | Cc1ccc(-c2c(C)noc2C)cc1N(CCCC1CCN(CC(=O)N[C@H](C(=O)N2C[C@H](O)C[C@H]2C(=O)N[C@@H](C)c2ccc(-c3scnc3C)cc2)C(C)(C)C)CC1)c1ccc(-n2ccnc2)c(Br)c1 [Compound 141, (2S,4R)-1-((S)-2-(2-(4-(3-((3-bromo-4-(1H-imidazol-1-yl)phenyl)(5-(3,5-dimethylisoxazol-4-yl)-2-methylphenyl)amino)propyl)piperidin-1-yl)acetamido)-3,3-dimethylbutyryl)-4-hydroxy-N—((S)-1-(4-(4-methylthiazol-5-yl)phenyl)ethyl)tetrahydropyrrole-2-amide]
15 | 101 to 500 nM |  | CC(=O)O[C@@H]1C[C@@H](C(=O)N[C@@H](C)c2ccc(-c3scnc3C)cc2)N(C(=O)[C@@H](NC(=O)CN2CCC(CCCN(c3ccc(-n4ccnc4)c(Br)c3)c3cc(-c4c(C)noc4C)ccc3C)CC2)C(C)(C)C)C1 [Compound 142, (3R,5S)-1-((S)-2-(2-(4-(3-((3-Bromo-4-(1H-imidazol-1-yl)phenyl)(5-(3,5-4-yl)-2-methylphenyl)amino)propyl)piperidin-1-yl)acetamido)-3,3-dimethylbutyryl)-5-(((S)-1-(4-(4-methylthiazol-5-yl)phenyl)ethyl)carbamoyl)pyrrolidinyl-3-acetate]
16 | 101 to 500 nM |  | Cc1ccc(-c2c(C)noc2C)cc1N(CCCCCOCC(=O)Nc1cccc2c1CN(C1CCC(=O)NC1=O)C2=O)c1ccc(C2(C#N)CC2)cc1 (centres unmarked) [Compound 144]
